In PMC3107525 (The Journal of neuroscience : the official journal of the …, 2011):
Read-outs that look alike come from different tables or passages of the source.

Columns and labels:
[1] = target: SERT (Rattus norvegicus, UniProt P31652); assay type: in vivo; settings: exogenously applied, anesthetized rats, mean ± SEM, n = 10
[2] = target: DAT (Rattus norvegicus, UniProt P23977); assay type: in vivo; settings: 10 mg/kg i.p., dorsal striatum
[3] = target: T1, hSERT Y95F (Homo sapiens, UniProt P31645, Y95F)
[4] = target: T2, hSERT WT (Homo sapiens, UniProt P31645)
[5] = target: T2, hSERT WT; remark: listed apart in the source
[6] = target: hSERT D98G (Homo sapiens, UniProt P31645, D98G)
[7] = target: T2, hSERT WT; settings: gluconate substituted for Cl-
[8] = target: T2, hSERT WT; settings: 20 μM 5HT or 2 mM DA extracellular
[9] = target: T2, hSERT WT; settings: 0.2-0.5 nM [125I]RTI-55, 1 hour on ice
[10] = target: hSERT Y95F/C109A/I179C (Homo sapiens, UniProt P31645, C109A/I179C/Y95F); assay: Uptake with MTSET-sensitive mutant in COS-7 cells; assay type: cell-based
[11] = target: T2, hSERT WT; remark: listed apart in the source
[12] = target: T1, hSERT Y95F; remark: listed apart in the source
[13] = tested on: NCCc1ccc(O)c(O)c1; assay: cells, lysate or membranes; settings: other: substrate uptake, COS-7, 96 well plates, 10 min, room temperature; pH 7.4
[14] = substrate uptake, COS-7, 96 well plates, 10 min, room temperature
[15] = read-out: IC50 for inhibition of [3H]5HT uptake
[16] = read-out: IC50 for inhibition of [3H]DA uptake

Chain of SERT (P31652 whole entry): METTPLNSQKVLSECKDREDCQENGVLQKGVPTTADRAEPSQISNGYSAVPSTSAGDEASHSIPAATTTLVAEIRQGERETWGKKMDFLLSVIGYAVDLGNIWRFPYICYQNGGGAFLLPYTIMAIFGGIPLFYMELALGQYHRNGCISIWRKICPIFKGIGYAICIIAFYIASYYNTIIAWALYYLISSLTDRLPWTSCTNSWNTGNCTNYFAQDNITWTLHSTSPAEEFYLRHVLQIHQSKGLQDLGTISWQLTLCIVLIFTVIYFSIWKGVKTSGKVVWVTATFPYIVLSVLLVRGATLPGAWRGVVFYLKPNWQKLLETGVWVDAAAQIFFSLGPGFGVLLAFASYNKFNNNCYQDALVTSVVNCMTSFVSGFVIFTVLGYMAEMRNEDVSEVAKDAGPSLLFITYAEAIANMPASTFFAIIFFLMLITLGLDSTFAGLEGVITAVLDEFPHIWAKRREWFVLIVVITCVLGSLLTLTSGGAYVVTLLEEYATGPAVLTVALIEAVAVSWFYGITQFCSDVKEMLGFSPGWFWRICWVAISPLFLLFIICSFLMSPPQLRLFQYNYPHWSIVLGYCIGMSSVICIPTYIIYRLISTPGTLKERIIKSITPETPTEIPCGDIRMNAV
Chain of DAT (P23977 whole entry): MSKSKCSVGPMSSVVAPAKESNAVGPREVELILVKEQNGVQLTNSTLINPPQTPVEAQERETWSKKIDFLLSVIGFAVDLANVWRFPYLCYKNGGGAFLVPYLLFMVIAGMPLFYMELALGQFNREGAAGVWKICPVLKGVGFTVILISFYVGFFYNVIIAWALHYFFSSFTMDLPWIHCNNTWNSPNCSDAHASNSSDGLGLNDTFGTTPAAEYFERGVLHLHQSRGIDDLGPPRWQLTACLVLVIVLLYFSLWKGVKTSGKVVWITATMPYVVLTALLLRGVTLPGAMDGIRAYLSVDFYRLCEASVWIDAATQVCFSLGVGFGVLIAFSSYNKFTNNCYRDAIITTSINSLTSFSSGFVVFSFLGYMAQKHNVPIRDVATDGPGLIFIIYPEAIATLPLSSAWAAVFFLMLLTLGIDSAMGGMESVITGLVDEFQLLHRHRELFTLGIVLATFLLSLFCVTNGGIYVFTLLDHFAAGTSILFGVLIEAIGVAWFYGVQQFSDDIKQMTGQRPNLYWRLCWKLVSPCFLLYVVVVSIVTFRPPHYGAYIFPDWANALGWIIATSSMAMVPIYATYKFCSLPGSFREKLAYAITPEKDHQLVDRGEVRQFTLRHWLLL

NCCc1c[nH]c2ccc(O)cc12 [5HT, serotonin]
baseline clearance time (T80) [1]: 73.4 ± 8.3 s

CN(C)CCCC1(c2ccc(F)cc2)OCc2cc(C#N)ccc21 (centres unmarked) [Citalopram, citalopram]
effect on DA clearance time (T80) [2]: unaffected

NCCc1ccc(O)c(O)c1 [DA, dopamine]
Vmax [3, 14]: 2.4 ± 0.52 pmol/well/min | Vmax for DA transport relative to Vmax for 5HT transport ([3]; times higher): 4–5 times | Vmax [4, 14]: 2.7 ± 0.65 pmol/well/min | Vmax for DA transport relative to Vmax for 5HT transport ([4]; times higher): 4–5 times | mode of inhibition of 5HT uptake [5]: competitive inhibitor | DA uptake activity [6]: no DA uptake activity | apparent affinity for Cl- in substrate transport [7]: ~ 100 mM | efflux of preloaded [3H]5HT [8]: substantial and comparable efflux | efflux of preloaded [3H]DA [8]: no significant efflux | relation of 5HT and DA binding sites [9]: mutually exclusive | baseline clearance time (T80) [1]: 79.5 ± 4.1 s | transport of DA ([10]; before or after MTSET treatment): < 2%

CNC(C)Cc1ccc2c(c1)OCO2 (centres unmarked) [MDMA, 3,4-methylenedioxymethamphetamine]
IC50 [11, 15]: 4.4 ± 0.84 µM | IC50 [11, 16]: 2.7 ± 0.33 µM | IC50 [12, 15]: 3100 ± 430 nM | IC50 [12, 16]: 940 ± 110 nM

C[N+](C)(C)CCSS(C)(=O)=O [MTSET, [2-(trimethylammonium)ethyl] methane-thiosulfonate]
decrease of 5HT uptake activity ([10]; 10 mM MTSET, 10 min): > 90%

hSERT WT (Homo sapiens)
Km [13]: 78 ± 5.7 µM
